Patent US20050215625A9, “Combination therapy for anticoagulation” (priority 2003, published 2005)
Where two headings read alike, the source gives them in different places.

Test system: anticoagulation level (International Normalized Ratio)
Details: for variation from low to high doses of warfarin / warfarin dose, low to high: across the first 24 measures
Method: Adult anticoagulation patients presenting to the practice site were informed of the study, and the opportunity to be a test subject. Subjects were required to complete a study entry data interview, provide informed consent, and present to the clinic once to twice weekly for INR evaluation. The control group and a second group (the algorithm group) of patients were provided warfarin alone as an anticoagulation agent, while the study group patients received warfarin and 100 μg of vitamin K in a single gelatin capsule from a single pharmacy. […] The study received clearance from the St. Mary's Medical Center Institutional Review Board, Galesburg, Ill.
An initial study interview was conducted and identified a patient's sex, age, indication for anticoagulation, and prescription and nonprescription medication usage. Those who were appropriate for study and provided consent were required to present to the clinic for once or twice weekly INR testing.
The control group (N=6) received their warfarin dosed by conventional tablet forms and presented to the office at least weekly for INR labs (more often if dosage changes were required).
The algorithm group (N=6) received their warfarin based upon an algorithm devised by the investigators to standardize the adjustments and the dosing of warfarin in smaller increments than those available in conventional dosages of oral medication (tablets). The algorithm specified dosages of warfarin other than those used by the manufacturer, in order for the prescribing physician to specify smaller incremental dosage changes than those permitted with the standard dosages available.
The purpose of having the algorithm group as a part of the study was to determine if the algorithm played a significant role in reducing nontherapeutic anticoagulation intervals. […] If a dosing adjustment was required due to a nontherapeutic INR, the dose of warfarin would be adjusted in a fixed increment and the time of the next INR set by reducing the interval.
The second theory behind the algorithm is that at the lower warfarin doses, the interval between easily taken amounts is a significant dose change. For example, the increase in dosage between 1 mg and 2 mg daily is a 100 percent dose increase. In comparison, the increase between the 4 mg tab and the 5 mg tab is a 25 percent dose increase. In order to create smaller dosage steps between doses of warfarin, the various available tablets were halved along their scoring lines and the appropriate amount was placed into a gelatin capsule for easy daily dosing. For instance, a dose of 1.75 mg warfarin required one-half of a 2.5 mg tablet and one-half of a 1 mg tab to be placed into a gelatin capsule. A cooperating compounding pharmacist placed the daily doses of warfarin into gelatin capsules for the use of the patients in the algorithm group.
The study group (N=12) received warfarin combined with 100 μg of vitamin K compounded into a gelatin capsule by the compounding pharmacist. The warfarin was dosed by the study algorithm, described above. Patients who randomized to this group received their current dose of warfarin along with the dose of vitamin K in the daily gelatin capsule. And as the INR fluctuated, the dose of warfarin was adjusted by the algorithm.
The combination of warfarin and vitamin K was accomplished by adding fixed amounts of each into an orally dosed form. The doses of warfarin used within the study protocol were (in milligrams): 0.5, 1, 1.25, 1.5, 1.75, 2.0, 2.25, 2.5, 2.75, 3.0, 3.25, 3.5, 3.75, 4.0, 4.5, 5.0, 5.5, 6.0, 6.5, 7.0, 7.5, 8.0, 8.5, 9.0, 9.5, 10, 11, 12, 13, 15.

[1] = algorithm only arm, average dose
[2] = combination capsule group (dosed by algorithm) or standard care group

## CC(=O)CC(c1ccccc1)c1c(O)c2ccccc2oc1=O (centres unmarked) [warfarin alone, 3-(_-acetonylbenzyl)-4-hydroxycoumarin]
[1]
  variation from low to high doses of warfarin: 25.3%
  warfarin dose, low to high: 4.71-6.30 mgs
[2]
  variation from low to high doses of warfarin: 36.9%
  warfarin dose, low to high: 3.50-5.55 mgs
Control and algorithm arms, includes two subjects who had this occur twice
  persons with a dosage change in their anticoagulation after a change in concomitant medical therapy: Eight
Over six months, INR at least weekly, up to 35 INR measurements, combination group N=12 (100 μg vitamin K) vs control and algorithm groups combined, p=0.032
  number of clinically safe anticoagulation levels (INR level between 2.0 and 3.0): 14.83
Over six months, INR at least weekly, combination group N=12 vs control and algorithm groups combined, p=0.048
  number of medically safe anticoagulation levels (INR level between 1.8 and 3.5): 18.42
Over six months, combination group N=12 vs control and algorithm groups combined, p=0.054, not significant
  number of medically unsafe INRs (INR less than 1.5 or greater than 4.9): 22.00
